From patent US10610522B2, “Methods for retreating irritable bowel syndrome (IBS)” (Salix Pharmaceuticals, Inc., priority 2014, dated 2020)

Key:
[1] = test system: hepatic encephalopathy (HE), commonly-occurring infections; assay: Infection rates in cirrhotic patients with HE on long-term rifaximin 550 mg BID (RCT and open-label maintenance); type: in vivo; details: for Any infection: rate = number of subjects/PEY; for C. difficile infection / Cellulitis / Peritonitis / Pneumonia / Urinary tract/kidney infection: human, in vivo
Excerpt: Cirrhosis patients can have an increased risk of infections and subsequent hospitalizations, leading to increased mortality. […] A description of the OLM and RCT can be found in WO 2011/005388, “METHODS OF TREATING HEPATIC ENCEPHALOPATHY,” which is incorporated herein by reference in its entirety. In the analysis below, the effect of long term RFX treatment on infection rates and antibiotic use was examined.
Patients with cirrhosis and ≥2 overt HE episodes within 12 months were enrolled in the RCT (RFX=140; placebo [PBO]=159); 170 new patients, in addition to 70 RFX and 82 PBO patients who rolled over from the RCT were enrolled in OLM. The “All RFX group” (n=392) consisted of RFX-treated patients in both studies. Infection rates per person exposure years (PEY) were compared across RCT and All RFX groups, and antibiotic use over time was examined.
In the 6 month RCT, RFX exposure was 50 PEY vs 46 PEY in the PBO group. Long term RFX exposure was for median=427 (2-1427) days, or 510 PEY. […] Overall, use of antibiotics (oral and intravenous) remained the same or declined with time.

[2] = test system: C. difficile infection (CDI); assay: Double-blind non-inferiority trial rifaximin 400 mg TID vs vancomycin 125 mg QID, 10 days, C. difficile infection; type: in vivo, human
Experimental: Criteria for entry into the trial were: • Age >=18 years old; • Had acute diarrhea at screening defined as >=3 unformed stools in the last 24 hours and at least one sign of enteric infection (fever, nausea, lose of appetite, vomiting, severe abdominal pain/discomfort); and • a positive C. diff stool toxin assay Endpoint:
The primary efficacy endpoint of the study was defined as the proportion of subjects achieving clinical success. Specifically, clinical success was defined as the absence of severe abdominal pain at Test of Cure (TOC), absence of fever (<38° C.) at TOC, and <3 unformed stools for two consecutive days at TOC.
Clinical success was defined as the: Absence of severe abdominal pain at TOC, absence of fever (<38° C.) at TOC, and <3 unformed stools for two consecutive days at TOC. Test of cure defined as Day 14+/−1 day.
Recurrence was defined to be a diarrhea and a positive C. diff stool toxin assay that occurred after initial clinical success.
Global cure of diarrhea was defined as subjects who were cured of diarrhea at TOC without recurrence at follow up.
Subjects who completed the study without achieving clinical success were censored at Day 14

[3] = Crossover drug interaction study: oral cyclosporine 600 mg on pharmacokinetics of single-dose rifaximin 550 mg; type: in vivo, human
Experimental: Eligible subjects were healthy men and women 18 to 45 years of age. […] The 2 dosing periods were separated by 7 days. […] Subjects underwent a supervised fast overnight (for >8 hours) before dosing and for 4 hours after dosing, though water was permitted ad libitum. Subjects remained at the clinical research unit from Day 0 through the morning of Day 3, and from Day 7 through Day 10. A follow-up phone contact was made 3 (+1) days after discharge, which concluded their participation in the study. Study duration was up to 35 days, including a 21-day screening window, dosing on Day 1, a 7-day washout period, dosing on Day 8, discharge from the clinic on Day 10, and a 3 (+1) day follow-up period after discharge.

cytochrome P450 2D6 = cytochrome P450 2D6 (Homo sapiens, UniProt P10635); assay: In vitro cytochrome P450 inhibition; type: biochemical; details: 2 to 200 ng/mL
cytochrome P450 2D6, sequence (P10635 whole entry): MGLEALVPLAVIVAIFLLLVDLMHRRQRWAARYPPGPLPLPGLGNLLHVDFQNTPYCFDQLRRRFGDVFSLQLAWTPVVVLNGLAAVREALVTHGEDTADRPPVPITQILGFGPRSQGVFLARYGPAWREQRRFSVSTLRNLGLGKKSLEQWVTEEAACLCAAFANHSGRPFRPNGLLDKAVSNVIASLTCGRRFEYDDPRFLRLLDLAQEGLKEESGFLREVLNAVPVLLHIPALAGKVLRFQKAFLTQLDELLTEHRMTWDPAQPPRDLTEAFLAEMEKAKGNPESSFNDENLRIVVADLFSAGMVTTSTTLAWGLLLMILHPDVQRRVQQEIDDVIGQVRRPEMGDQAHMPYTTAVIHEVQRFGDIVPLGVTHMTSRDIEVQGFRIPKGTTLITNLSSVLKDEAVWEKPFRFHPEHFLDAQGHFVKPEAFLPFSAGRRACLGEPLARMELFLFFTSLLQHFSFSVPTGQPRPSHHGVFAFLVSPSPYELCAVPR

[4] = Rifaximin N = 117, Vancomycin N = 115
[5] = Rifaximin vs Vancomycin, at TOC
[6] = Rifaximin vs Vancomycin, treatment period
[7] = adjusting for concomitant medication usage, Rifaximin N = 109, Vancomycin N = 112
[8] = adjusting for concomitant medication usage, Rifaximin N = 117, Vancomycin N = 115
[9] = adjusting for concomitant medication usage, Rifaximin vs Vancomycin
[10] = after initial clinical success, Rifaximin N = 67, Vancomycin N = 73
[11] = all subjects, Rifaximin N = 117, Vancomycin N = 115
[12] = at TOC, Rifaximin N = 108, Vancomycin N = 111
[13] = at TOC, Rifaximin N = 117, Vancomycin N = 115
[14] = cured at TOC without recurrence at follow up, Rifaximin N = 117, Vancomycin N = 115
[15] = subgroup Age <65, at TOC, Rifaximin N = 69, Vancomycin N = 62
[16] = subgroup Age >=65, at TOC, Rifaximin N = 39, Vancomycin N = 49
[17] = subgroup Female, at TOC, Rifaximin N = 68, Vancomycin N = 64
[18] = subgroup Male, at TOC, Rifaximin N = 40, Vancomycin N = 47
[19] = both sexes, human, plasma, oral
[20] = both sexes, human, plasma, oral, 550 mg

CO[C@H]1/C=C/O[C@@]2(C)Oc3c(C)c(O)c4c(O)c(c5c(nc6cc(C)ccn65)c4c3C2=O)NC(=O)/C(C)=C\C=C\[C@H](C)[C@H](O)[C@@H](C)[C@@H](O)[C@@H](C)[C@H](OC(C)=O)[C@@H]1C [Rifaximin, (2S,16Z,18E,20S,21S,22R,23R,24R,25S,26S,27S,28E)-5,6,21,23,25 Pentahydroxy-27-methoxy-2,4,11,16,20,22,24,26-octamethyl-2,7-(epoxypentadeca-(1,11,13)trienimino) benzofuro (4,5-e) pyrido(1,2-a) benzimidazole-1,15(2H)-dione,25-acetate]
Any infection ([1]; All RFX patients (n = 392), PEY = 510): 214 (0.072) N (rate*)
Any infection ([1]; RCT RFX 550 mg BID (n = 140), PEY = 50): 46 (0.112) N (rate*)
C. difficile infection [1]: 6 (0.012) N (rate*)
Cellulitis [1]: 34 (0.071) N (rate*)
Peritonitis [1]: 22 (0.044) N (rate*)
Pneumonia [1]: 42 (0.084) N (rate*)
Urinary tract/kidney infection [1]: 83 (0.193) N (rate*)
C. difficile infection ([1]; 6 months): 2 (0.040) N (rate*)
Cellulitis ([1]; 6 months): 3 (0.006) N (rate*)
Peritonitis ([1]; 6 months): 3 (0.060) N (rate*)
Pneumonia ([1]; 6 months): 4 (0.080) N (rate*)
Urinary tract/kidney infection ([1]; 6 months): 9 (0.187) N (rate*)
Continuing Illness No: % of subjects [2, 4]: 77%
Continuing Illness No: number of subjects [2, 4]: 90
Continuing Illness Yes: % of subjects [2, 4]: 23%
Continuing Illness Yes: number of subjects [2, 4]: 27
Global Cure of Diarrhea No: % of subjects [2, 4]: 29%
Global Cure of Diarrhea No: number of subjects [2, 4]: 34
Recurrence Rate per Person-Year Exposure [2, 4]: 0.613
Continuing Illness: Treatment Difference ([2]; Rifaximin vs Vancomycin): −9.2%
Global Cure of Diarrhea: Treatment Difference ([2]; Rifaximin vs Vancomycin): −3.0%
Recurrence of CDI: Treatment Difference ([2]; Rifaximin vs Vancomycin, after initial clinical success): 4.7%
Clinical Success: Treatment Difference [2, 5]: −6.2%
Diarrhea: Treatment Difference [2, 5]: −1.5%
Fever: Treatment Difference [2, 5]: −7.5%
Severe Abdominal Pain/Discomfort: Treatment Difference [2, 5]: −11.5%
Adjusted mean number of unformed stools-ANOVA: Treatment Difference (95% CI) [2, 6]: 0.46 (−0.08, 1.00)
Overall treatment difference in number of unformed stools-Mixed Model: Treatment Difference (95% CI) [2, 6]: 0.32 (−0.08, 0.72)
Diarrhea No: % of subjects [2, 7]: 65%
Diarrhea No: number of subjects [2, 7]: 71
Diarrhea Yes: % of subjects [2, 7]: 35%
Diarrhea Yes: number of subjects [2, 7]: 38
Clinical Success No: % of subjects [2, 8]: 50%
Clinical Success No: number of subjects [2, 8]: 59
Clinical Success Yes: % of subjects [2, 8]: 50%
Clinical Success Yes: number of subjects [2, 8]: 58
Clinical Success: Treatment Difference [2, 9]: −10.4%
Diarrhea: Treatment Difference [2, 9]: −8.1%
No Recurrence of CDI: % of subjects [2, 10]: 91%
No Recurrence of CDI: number of subjects [2, 10]: 61
Recurrence of CDI: % of subjects [2, 10]: 9%
Recurrence of CDI: number of subjects [2, 10]: 6
Recurrence No: % of subjects [2, 11]: 95%
Recurrence No: number of subjects [2, 11]: 111
Recurrence Yes: % of subjects [2, 11]: 5%
Recurrence Yes: number of subjects [2, 11]: 6
Diarrhea No: % of subjects [2, 12]: 80%
Diarrhea No: number of subjects [2, 12]: 86
Diarrhea Yes: % of subjects [2, 12]: 20%
Diarrhea Yes: number of subjects [2, 12]: 22
Fever No: % of subjects [2, 12]: 91%
Fever No: number of subjects [2, 12]: 98
Fever Yes: % of subjects [2, 12]: 9%
Fever Yes: number of subjects [2, 12]: 10
Severe Abdominal Pain/Discomfort No: % of subjects [2, 12]: 74%
Severe Abdominal Pain/Discomfort No: number of subjects [2, 12]: 80
Severe Abdominal Pain/Discomfort Yes: % of subjects [2, 12]: 26%
Severe Abdominal Pain/Discomfort Yes: number of subjects [2, 12]: 28
Clinical Success No: % of subjects [2, 13]: 43%
Clinical Success No: number of subjects [2, 13]: 50
Clinical Success Yes: % of subjects [2, 13]: 57%
Clinical Success Yes: number of subjects [2, 13]: 67
Global Cure of Diarrhea Yes: % of subjects [2, 14]: 71%
Global Cure of Diarrhea Yes: number of subjects [2, 14]: 83
Adjusted mean number of unformed stools-ANOVA ([2]; during the treatment period, Rifaximin N = 117, Vancomycin N = 115): 2.36
Diarrhea: % of subjects [2, 15]: 23%
Diarrhea: number of subjects [2, 15]: 16
No Diarrhea: % of subjects [2, 15]: 77%
No Diarrhea: number of subjects [2, 15]: 53
Diarrhea: Treatment Difference ([2]; subgroup Age <65, at TOC, Rifaximin vs Vancomycin): −3.8%
Diarrhea: % of subjects [2, 16]: 15%
Diarrhea: number of subjects [2, 16]: 6
No Diarrhea: % of subjects [2, 16]: 85%
No Diarrhea: number of subjects [2, 16]: 33
Diarrhea: Treatment Difference ([2]; subgroup Age >=65, at TOC, Rifaximin vs Vancomycin): 3.0%
Diarrhea: % of subjects [2, 17]: 21%
Diarrhea: number of subjects [2, 17]: 14
No Diarrhea: % of subjects [2, 17]: 79%
No Diarrhea: number of subjects [2, 17]: 54
Diarrhea: Treatment Difference ([2]; subgroup Female, at TOC, Rifaximin vs Vancomycin): −3.4%
Diarrhea: % of subjects [2, 18]: 20%
Diarrhea: number of subjects [2, 18]: 8
No Diarrhea: % of subjects [2, 18]: 80%
No Diarrhea: number of subjects [2, 18]: 32
Diarrhea: Treatment Difference ([2]; subgroup Male, at TOC, Rifaximin vs Vancomycin): 1.3%
Tmax [3, 19]: 2 h
half-life [3, 19]: 6.61 h
AUC(0-inf) [3, 20]: 2.53 ng·h/mL
Cmax [3, 20]: 0.48 ng/mL
Tmax [3, 20]: 1 h
half-life [3, 20]: 2.86 h
Increase in rifaximin mean AUC on co-administration of cyclosporine ([3]; healthy subjects): 124 fold
Increase in rifaximin mean Cmax on co-administration of cyclosporine ([3]; healthy subjects): 83 fold
Inhibition of cytochrome P450 2D6 (cytochrome P450 2D6): does not inhibit
Severe TEAEs, SAEs, deaths (overall in the study): no severe TEAEs, SAEs, or deaths
Subjects with a TEAE (rifaximin treatment period (7 subjects)): 25%
